Read-outs that look alike come from different tables or passages of the source.

What all share (assay type): biochemical
One test addresses T1, human Lck enzyme (Homo sapiens, UniProt P06239).
T1 construct: purchased Carna Biosciences, Inc. 08-170
Put plainly: Lck enzyme inhibitory activity (time-resolved fluorometry, biotinylated peptide phosphorylation). The note with it: read-out: LCK_IC50. The method in brief:
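Readout pairs a europium cryptate-labelled anti-phosphotyrosine antibody with XL665-streptavidin, measured by time-resolved fluorescence. IC50 derived from percent inhibition against untreated controls.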

The target of the next test is T2, human Src enzyme (Homo sapiens, UniProt P12931).
T2 construct: purchased Carna Biosciences, Inc. 08-173
Put plainly: Src enzyme inhibitory activity (time-resolved fluorometry, biotinylated peptide phosphorylation). The note with it: read-out: SRC_IC50. The method in brief:
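Compounds were tested for blocking tyrosine phosphorylation of a biotinylated peptide substrate by recombinant human Src. Phosphorylated product was quantified by time-resolved fluorometry using europium cryptate and XL665 conjugates, and IC50 was calculated against the compound-free control.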

The next test deals with T3, human Yes1 enzyme (Homo sapiens, UniProt P07947).
T3 construct: made in house
Put plainly: Yes1 enzyme inhibitory activity (time-resolved fluorometry, biotinylated peptide phosphorylation). The note with it: read-out: YES_IC50. The method in brief: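 Inhibition was expressed against a compound-free control to give IC50, using TR-FRET read-out (Eu-cryptate anti-pTyr antibody, streptavidin-XL665).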

Where [1] appears, read: biotinylated peptide phosphorylation.

T1 sequence (P06239 whole entry): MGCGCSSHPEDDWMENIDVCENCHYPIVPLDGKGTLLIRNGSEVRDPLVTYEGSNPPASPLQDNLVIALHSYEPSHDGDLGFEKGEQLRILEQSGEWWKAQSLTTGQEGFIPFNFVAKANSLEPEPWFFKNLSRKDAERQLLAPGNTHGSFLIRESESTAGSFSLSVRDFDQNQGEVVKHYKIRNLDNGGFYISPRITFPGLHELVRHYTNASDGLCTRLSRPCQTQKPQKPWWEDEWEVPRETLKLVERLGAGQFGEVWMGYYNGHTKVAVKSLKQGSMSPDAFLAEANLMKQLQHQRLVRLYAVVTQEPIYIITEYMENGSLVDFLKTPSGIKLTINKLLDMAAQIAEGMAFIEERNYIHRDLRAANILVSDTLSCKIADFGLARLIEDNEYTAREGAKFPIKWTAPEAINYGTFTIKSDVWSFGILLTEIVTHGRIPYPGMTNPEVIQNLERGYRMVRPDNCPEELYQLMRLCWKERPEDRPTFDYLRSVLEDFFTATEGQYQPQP
T2 sequence (P12931 whole entry): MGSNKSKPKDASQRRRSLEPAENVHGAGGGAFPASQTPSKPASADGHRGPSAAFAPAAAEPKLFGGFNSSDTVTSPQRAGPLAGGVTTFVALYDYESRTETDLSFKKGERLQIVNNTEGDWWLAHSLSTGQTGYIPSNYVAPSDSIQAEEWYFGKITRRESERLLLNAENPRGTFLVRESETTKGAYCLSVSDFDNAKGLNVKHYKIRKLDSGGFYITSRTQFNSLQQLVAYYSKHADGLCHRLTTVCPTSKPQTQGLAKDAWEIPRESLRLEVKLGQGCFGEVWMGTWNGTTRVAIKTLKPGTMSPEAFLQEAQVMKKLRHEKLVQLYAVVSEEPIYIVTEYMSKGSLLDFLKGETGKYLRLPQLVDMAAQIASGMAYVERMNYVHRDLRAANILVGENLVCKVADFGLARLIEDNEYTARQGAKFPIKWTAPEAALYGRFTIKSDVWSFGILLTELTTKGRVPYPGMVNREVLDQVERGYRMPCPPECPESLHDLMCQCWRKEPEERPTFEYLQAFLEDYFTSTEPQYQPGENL
T3 sequence (P07947 whole entry): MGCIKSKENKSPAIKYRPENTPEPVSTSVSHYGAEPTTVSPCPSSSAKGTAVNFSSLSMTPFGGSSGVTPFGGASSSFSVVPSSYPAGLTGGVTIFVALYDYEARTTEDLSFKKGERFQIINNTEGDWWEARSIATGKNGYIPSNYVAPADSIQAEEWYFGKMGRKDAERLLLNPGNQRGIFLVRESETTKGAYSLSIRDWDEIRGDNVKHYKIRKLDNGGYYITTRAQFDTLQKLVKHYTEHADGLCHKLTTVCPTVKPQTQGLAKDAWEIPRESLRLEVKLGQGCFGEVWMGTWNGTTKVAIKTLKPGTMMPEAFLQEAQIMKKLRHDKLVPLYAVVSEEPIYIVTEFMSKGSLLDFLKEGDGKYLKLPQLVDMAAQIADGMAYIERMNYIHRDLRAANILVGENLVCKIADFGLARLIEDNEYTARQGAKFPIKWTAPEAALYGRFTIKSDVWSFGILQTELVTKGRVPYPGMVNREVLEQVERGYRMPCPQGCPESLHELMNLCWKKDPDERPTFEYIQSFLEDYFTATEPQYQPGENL

As for `COc1cc2[nH]c(C(=O)c3cnn(-c4cnc(Oc5ccccc5F)cc4C)c3N)cc2cc1NS(C)(=O)=O` [Example 4-1-014, N-[2-[5-amino-1-[6-(2-fluorophenoxy)-4-methylpyridin-3-yl]pyrazole-4-carbonyl]-6-methoxy-1H-indol-5-yl]methanesulfonamide], the IC50 at human Lck enzyme (setting [1]) is 1.4 nM; at human Src enzyme (setting [1]), 5.8 nM; on human Yes1 enzyme (setting [1]), 0.36 nM.

Regarding `Nc1c(C(=O)c2cc3cc(F)c(NS(=O)(=O)CCCF)cc3[nH]2)cnn1-c1ccc(Oc2ccccn2)cc1Cl` [Example 4-2-018, N-[2-[5-amino-1-(2-chloro-4-pyridin-2-yloxyphenyl)pyrazole-4-carbonyl]-5-fluoro-1H-indol-6-yl]-3-fluoropropane-1-sulfonamide], the IC50 on human Lck enzyme (setting [1]) was 15 nM; on human Src enzyme (setting [1]), 22 nM; at human Yes1 enzyme (setting [1]) it was 0.52 nM.

`Cc1cc(Oc2ccccc2F)ccc1-n1ncc(C(=O)c2cc3cc(OC4CCN(C(C)C)CC4)c(NS(C)(=O)=O)cc3[nH]2)c1N` [Example 5-1-189, N-[2-[5-amino-1-[4-(2-fluorophenoxy)-2-methylphenyl]pyrazole-4-carbonyl]-5-(1-propan-2-ylpiperidin-4-yl)oxy-1H-indol-6-yl] methanesulfonamide]: the IC50 on human Lck enzyme worked out at 1.5 nM; on human Src enzyme, 3.3 nM; on human Yes1 enzyme, 0.38 nM.

`Cc1cc2cc(C(=O)c3cnn(-c4c(C)cc(Oc5ccccc5Cl)cc4F)c3N)[nH]c2cc1NS(C)(=O)=O` [Example 4-2-058, N-[2-[5-amino-1-[4-(2-chlorophenoxy)-2-fluoro-6-methylphenyl]pyrazole-4-carbonyl]-5-methyl-1H-indol-6-yl]methanesulfonamide]: the IC50 on human Lck enzyme (setting [1]) came to 69 nM; on human Src enzyme (setting [1]), 180 nM; on human Yes1 enzyme (setting [1]), 4 nM.

On to `Cc1cc(Oc2c(F)cccc2F)ncc1-n1ncc(C(=O)c2cc3cc(F)c(NS(=O)(=O)c4cccc(F)c4)cc3[nH]2)c1N` [Example 5-1-553, N-[2-[5-amino-1-[6-(2,6-difluorophenoxy)-4-methylpyridin-3-yl]pyrazole-4-carbonyl]-5-fluoro-1H-indol-6-yl]-3-fluorobenzenesulfonamide], for which the IC50 at human Lck enzyme (setting [1]) is 370 nM; on human Src enzyme (setting [1]) it was 1300 nM; on human Yes1 enzyme (setting [1]) it was 17 nM.

Regarding `CC(C)N1CCC(c2cc3[nH]c(C(=O)c4cnn(-c5ccc(Oc6ccccc6Cl)cc5)c4N)cc3cc2F)CC1` [Example 5-1-015, [5-amino-1-[4-(2-chlorophenoxy)phenyl]pyrazol-4-yl]-[5-fluoro-6-(1-propan-2-ylpiperidin-4-yl)-1H-indol-2-yl]methanone], the IC50 at human Lck enzyme came out at 2.2 nM; on human Src enzyme it was 23 nM; on human Yes1 enzyme it was 1.5 nM.

Turning to `Cc1cc2cc(C(=O)c3cnn(-c4cnc(Oc5cccc(F)c5F)cc4C)c3N)[nH]c2cc1NS(C)(=O)=O` [Example 4-2-062, N-[2-[5-amino-1-[6-(2,3-difluorophenoxy)-4-methylpyridin-3-yl]pyrazole-4-carbonyl]-5-methyl-1H-indol-6-yl]methanesulfonamide], the IC50 was determined as 21 nM at human Lck enzyme (setting [1]), 130 nM at human Src enzyme (setting [1]) and 3.2 nM at human Yes1 enzyme (setting [1]).

Consider `CC(C)N1CCC(c2cc3cc(C(=O)c4cnn(-c5ccc(Oc6ccccc6F)cc5F)c4N)[nH]c3cc2F)CC1` [Example 4-2-009, [5-amino-1-[2-fluoro-4-(2-fluorophenoxy)phenyl]pyrazol-4-yl]-[6-fluoro-5-(1-propan-2-ylpiperidin-4-yl)-1H-indol-2-yl]methanone], for which the IC50 on human Lck enzyme (setting [1]) came out at 3.4 nM; on human Src enzyme (setting [1]) it was 5.1 nM; at human Yes1 enzyme (setting [1]), 0.81 nM.

In the case of `Cc1cc(Oc2ccccc2F)ccc1-n1ncc(C(=O)c2cc3cc(F)c(NS(=O)(=O)CC(=O)N4CCCC4)cc3[nH]2)c1N` [Example 4-26-001, N-(2-(5-amino-1-(4-(2-fluorophenoxy)-2-methylphenyl)-1H-pyrazole-4-carbonyl)-5-fluoro-1H-indol-6-yl)-2-oxo-2-(pyrrolidin-1-yl)ethanesulfonamide], the figures for the IC50 on human Lck enzyme (setting [1]), on human Src enzyme (setting [1]) and at human Yes1 enzyme (setting [1]) were 7.6 nM, 26 nM and 1.5 nM, respectively.

As to `Cc1cc(Oc2ccccc2F)ccc1-n1ncc(C(=O)c2cc3cc(OC(F)F)c(N4CCCS4(=O)=O)cc3[nH]2)c1N` [Example 4-25-002, [5-amino-1-[4-(2-fluorophenoxy)-2-methylphenyl]pyrazol-4-yl]-[5-(difluoromethoxy)-6-(1,1-dioxo-1,2-thiazolidin-2-yl)-1H-indol-2-yl]methanone], the IC50 on human Lck enzyme (setting [1]) amounted to 15 nM; on human Src enzyme (setting [1]), 37 nM; on human Yes1 enzyme (setting [1]) it was 3.1 nM.

`Cc1cc(Oc2c(F)cccc2Cl)ncc1-n1ncc(C(=O)c2cc3cc(F)c(NS(=O)(=O)C4CC4)cc3[nH]2)c1N` [Example 4-2-046, N-[2-[5-amino-1-[6-(2-chloro-6-fluorophenoxy)-4-methylpyridin-3-yl]pyrazole-4-carbonyl]-5-fluoro-1H-indol-6-yl]cyclopropanesulfonamide]: the IC50 at human Lck enzyme (setting [1]) is 48 nM; at human Src enzyme (setting [1]), 230 nM; on human Yes1 enzyme (setting [1]) it was 12 nM.

For `Cc1cc(Oc2ccccc2F)ccc1-n1ncc(C(=O)c2cc3cc(OC4CCN(C(C)C)CC4)c(N4CCOC4=O)cc3[nH]2)c1N` [Example 5-1-192, 3-[2-[5-amino-1-[4-(2-fluorophenoxy)-2-methylphenyl]pyrazole-4-carbonyl]-5-(1-propan-2-ylpiperidin-4-yl)oxy-1H-indol-6-yl]-1,3-oxazolidin-2-one], the results for the IC50 on human Lck enzyme, at human Src enzyme and at human Yes1 enzyme were 0.86 nM, 1.1 nM and 0.29 nM, respectively.

Turning to `Cc1cc2cc(C(=O)c3cnn(-c4ccc(Oc5ccccc5F)cc4C)c3N)[nH]c2cc1N1C(=O)NC2(CCNC2)C1=O` (stereo not drawn) [Example 5-1-365, 3-[2-[5-amino-1-[4-(2-fluorophenoxy)-2-methylphenyl]pyrazole-4-carbonyl]-5-methyl-1H-indol-6-yl]-1,3,7-triazaspiro[4.4]nonane-2,4-dione], the values for the IC50 on human Lck enzyme, on human Src enzyme and at human Yes1 enzyme were 5.7 nM, 18 nM and 1.5 nM, respectively.

As for `Nc1c(C(=O)c2cc3cc(F)c(NS(=O)(=O)CCCF)cc3[nH]2)cnn1-c1c(Cl)cc(Oc2ccccc2F)cc1Cl` [Example 5-1-033, N-[2-[5-amino-1-[2,6-dichloro-4-(2-fluorophenoxy)phenyl]pyrazole-4-carbonyl]-5-fluoro-1H-indol-6-yl]-3-fluoropropane-1-sulfonamide], the IC50 on human Lck enzyme amounted to 230 nM; on human Src enzyme, 400 nM; at human Yes1 enzyme, 8.4 nM.

For the compound `Cc1cc(Oc2ccccc2F)ccc1-n1ncc(C(=O)c2cc3cc(F)c(N4C(=O)NC5(CCCC5)C4=O)cc3[nH]2)c1N` [Example 5-1-438, 3-[2-[5-amino-1-[4-(2-fluorophenoxy)-2-methylphenyl]pyrazolo-4-carbonyl]-5-fluoro-1H-indol-6-yl]-1,3-diazaspiro[4.4]nonane-2,4-dione], the IC50 on human Lck enzyme (setting [1]) came out at 15 nM; at human Src enzyme (setting [1]) it was 120 nM; at human Yes1 enzyme (setting [1]), 1.9 nM.

Regarding `COc1cc2cc(C(=O)c3cnn(-c4c(C)cc(Oc5ccccc5F)cc4F)c3N)[nH]c2cc1NS(=O)(=O)CC(=O)NC(C)C` [Example 5-1-137, 2-[[2-[5-amino-1-[2-fluoro-4-(2-fluorophenoxy)-6-methylphenyl]pyrazole-4-carbonyl]-5-methoxy-1H-indol-6-yl]sulfamoyl]-N-propan-2-ylacetamide], the IC50 is 29 nM at human Lck enzyme, 41 nM at human Src enzyme and 1.3 nM on human Yes1 enzyme.
